From US20120184548A1, “CARBOXYLIC ACID ARYL AMIDES” (priority 2011, published 2012)

What was measured:
Human DYRK1A = target: T1, Human DYRK1A (Homo sapiens, UniProt Q13627); assay: DYRK1A Kinase TR-FRET (IMAP-Tb) Assay; type: biochemical; details: for IC50: TR-FRET, ATP 70 μM, 37° C. for 60 minutes, averages of multiple runs, read-out: Enzyme IC50 DYRK1A; for inhibition at 10 µM: 10 μM test compound, reported where IC50 was not determined, read-out: Enzyme DYRK1A % inhibition at 10 μM test compound concentration
T1 construct: purchased Invitrogen PV3997
Text: The kinase TR-FRET (IMAP-Tb) assay uses a fluorescence labeled substrate peptide in the kinase reaction. Upon phosphorylation by the kinase, phosphopeptide is produced, which will be detected by the binding solution provided in IMAP TR-FRET binding kit. After the completion of the kinase reaction, the reaction will be stopped by adding the binding solution containing terbium tracer. This tracer is immobilized on the surface of the IMAP beads, which also contain metal ions on the beads that bind to the phospho-groups of the products. Thus the phosphorylated product of the reaction can enter into close proximity to the tracer, producing resonance energy transfer. Due to the long lifetime of terbium (Tb) fluorescence the detection can be run in time resolved mode, which virtually eliminates fluorescence interference from assay components or compounds.
The TR-FRET signal measurement from this assay, given as an IC50 measurement, is a measure of a test compound's ability to interfere with the phosphorylation of the peptide substrate, that is it inhibits the phosphorylation of the substrate peptide by DYRK1A, and is thus a measure of the test compound's ability to inhibit the activity of DYRK1A.
1. Human DYRK1A: from Invitrogen. Part # PV3997
2. Substrate Peptide: […]
3. IMAP TR-FRET IPP Explorer Kit: from Molecular Devices. Part # R8157 4. Kinase Assay Buffer (KAB): 10 mM HEPES pH 7.0, 50 mM NaCl, 5 mM MgCl2, 1 mM DTT, 1 mM NaVO4, 200 μg/mL BSA (0.02%) 5. Assay Plate: Remp polypropylene clear 384-well microplate. […] Detection Plate: Costa black 384-well microplate. […] Transfer 1.5 μL of 20× compound solution to each well of an assay plate. 2. Add to each well 22.5 μL of KAB Buffer. 3. Add to each well 3 μL of the solution of DYRK1A and ATP. […] Add to each well 3 μL of the substrate peptide. The assay concentration is 1.0 μM 5. Incubate the assay plates at 37° C. for 60 minutes. 6. Add 18 μL of Detection Solution (1:800 diluted Progress bead stock, 1:400 diluted Tb stock, 80% Buffer A, and 20% Buffer B) into each well of detection plates. 7. Transfer 6 μL of assay solution from the assay plate to the detection plate. 8. Shake detection plates for 30 minutes. 9. Read plates in Envision with wavelength set at excitation 340 nm for Tb, emission 490 nm, and […].

Human DYRK1B = target: T2, Human DYRK1B (Homo sapiens, UniProt Q9Y463); assay: DYRK1B Kinase TR-FRET (IMAP-Tb) Assay; type: biochemical; details: for IC50: TR-FRET, ATP 70 μM, 37° C. for 60 minutes, averages of multiple runs, read-out: Enzyme IC50 DYRK1B; for inhibition at 10 µM: 10 μM test compound, reported where IC50 was not determined, read-out: Enzyme DYRK1B % inhibition at 10 μM test compound concentration
T2 construct: purchased Invitrogen PR8350B (former PV4649)
Text: The kinase TR-FRET (IMAP-Tb) assay uses a fluorescence labeled substrate peptide in the kinase reaction. Upon phosphorylation by the kinase, phosphopeptide is produced, which will be detected by the binding solution provided in IMAP TR-FRET binding kit. After the completion of the kinase reaction, the reaction will be stopped by adding the binding solution containing terbium tracer. This tracer is immobilized on the surface of the IMAP beads, which also contain metal ions on the beads that bind to the phospho-groups of the products. Thus the phosphorylated product of the reaction can enter into close proximity to the tracer, producing resonance energy transfer. Due to the long lifetime of terbium (Tb) fluorescence the detection can be run in time resolved mode, which virtually eliminates fluorescence interference from assay components or compounds. […] IC50 is the amount of test compound that inhibits 50% of the activity of DYRK1B in this assay. […] 1. Human DYRK1B: from Invitrogen. Part # PR8350B (former PV4649) 2. Substrate Peptide: RRRFRPASPLRGPPK 3. IMAP TR-FRET IPP Explorer Kit: from Molecular Devices. Part # R8157 4. Kinase Assay Buffer (KAB): 10 mM HEPES pH 7.0, 50 mM NaCl, 5 mM MgCl2, 1 mM DTT, 1 mM NaVO4, 200 μg/mL BSA (0.02%) 5. Assay Plate: Remp polypropylene clear 384-well microplate. Cat#23490-102 6. Detection Plate: Costa black 384-well microplate. Cat #3710 Assay Procedure: This assay was performed as follows: 1. Transfer 1.5 μL of 20× compound solution to each well of an assay plate. 2. Add to each well 22.5 μL of KAB Buffer. 3. Add to each well 3 μL of the solution of DYRK1B and ATP. […] Add to each well 3 μL of the substrate peptide. […] Incubate the assay plates at 37° C. for 60 minutes. 6. Add 18 μL of Detection Solution (1:800 diluted Progress bead stock, 1:400 diluted Tb stock, 80% Buffer A, and 20% Buffer B) into each well of detection plates. 7. Transfer 6 μL of assay solution from the assay plate to the detection plate. 8. Shake detection plates for 30 minutes. 9. Read plates in Envision with wavelength set at excitation 340 nm for Tb, emission 490 nm, and […]. 10. Calculation: TR-FRET Signal=(Reading at […])×2000000

T2 sequence (Q9Y463 whole entry): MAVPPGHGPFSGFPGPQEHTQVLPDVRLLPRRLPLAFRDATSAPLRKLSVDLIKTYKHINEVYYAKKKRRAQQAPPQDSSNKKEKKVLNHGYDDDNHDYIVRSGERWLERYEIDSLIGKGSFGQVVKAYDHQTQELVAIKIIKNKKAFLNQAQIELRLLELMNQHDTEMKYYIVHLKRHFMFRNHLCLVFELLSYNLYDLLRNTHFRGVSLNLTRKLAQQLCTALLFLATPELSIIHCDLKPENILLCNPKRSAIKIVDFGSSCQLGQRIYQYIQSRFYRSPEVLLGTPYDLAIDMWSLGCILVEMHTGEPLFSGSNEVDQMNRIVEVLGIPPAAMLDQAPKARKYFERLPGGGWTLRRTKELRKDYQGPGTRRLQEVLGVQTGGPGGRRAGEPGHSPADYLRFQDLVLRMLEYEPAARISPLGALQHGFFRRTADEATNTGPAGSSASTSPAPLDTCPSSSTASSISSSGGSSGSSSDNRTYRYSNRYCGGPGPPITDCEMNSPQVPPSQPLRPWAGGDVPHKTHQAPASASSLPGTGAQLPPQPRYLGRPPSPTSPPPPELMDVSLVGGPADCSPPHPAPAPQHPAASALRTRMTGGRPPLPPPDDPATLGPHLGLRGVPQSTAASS

Row | Compound | IC50 (Human DYRK1A) [µM] | IC50 (Human DYRK1B) [µM] | inhibition at 10 µM (Human DYRK1B) [%] | inhibition at 10 µM (Human DYRK1A) [%]
1 | COCCOc1cc2cc(C(=O)Nc3cc(C(=O)N[C@@H](CCN)c4ccccc4)ccc3C)c(=O)[nH]c2cc1OC (single isomer, unassigned) [Example 59] | 2.38 | 4.91 | – | –
2 | COc1cc2cc(C(=O)Nc3cc(C(=O)NC(CCN)c4ccccc4)ccc3C)c(=O)[nH]c2cc1OC (stereo in doubt) [Example 48, 6,7-Dimethoxy-2-oxo-1,2-dihydro-quinoline-3-carboxylic acid [5-((S)-3-amino-1-phenyl-propylcarbamoyl)-2-methyl-phenyl]-amide] | 1.02 | – | 39 | –
3 | COc1cc2cc(C(=O)Nc3cc(C(=O)N(C)C)ccc3Cl)c(=O)[nH]c2cc1OC [Example 20, 6,7-Dimethoxy-2-oxo-1,2-dihydro-quinoline-3-carboxylic acid (2-chloro-5-dimethylcarbamoyl-phenyl)-amide] | 1.13 | 5.09 | – | –
4 | COc1cc2cc(C(=O)Nc3ccncc3C)c(=O)[nH]c2cc1OC [Example 21, 6,7-Dimethoxy-2-oxo-1,2-dihydro-quinoline-3-carboxylic acid (3-methyl-pyridin-4-yl)-amide] | > 10 | 5.48 | – | –
5 | COc1cc2cc(C(=O)Nc3cc(-c4nnn[nH]4)ccc3C)c(=O)[nH]c2cc1OC [Example 22, 6,7-Dimethoxy-2-oxo-1,2-dihydro-quinoline-3-carboxylic acid [2-methyl-5-(1H-tetrazol-5-yl)-phenyl]-amide] | > 10 | 0.719 | – | –
6 | COCCOc1cc2cc(C(=O)Nc3cc(-c4nnn[nH]4)ccc3C)c(=O)[nH]c2cc1OC [Example 24, 7-Methoxy-6-(2-methoxy-ethoxy)-2-oxo-1,2-dihydro-quinoline-3-carboxylic acid [2-methyl-5-(1H-tetrazol-5-yl)-phenyl]-amide] | 1.76 | 2.67 | – | –
7 | COCCOc1cc2cc(C(=O)Nc3cc(C(=O)OC)ccc3C)c(=O)[nH]c2cc1OCCOC [Example 25, 3-{[6,7-Bis-(2-methoxy-ethoxy)-2-oxo-1,2-dihydro-quinoline-3-carbonyl]-amino}-4-methyl-benzoic acid methyl ester] | 0.604 | 0.911 | – | –
8 | COCCOc1cc2[nH]c(=O)c(C(=O)Nc3cc(C(=O)OC)ccc3C)cc2cc1OC [Example 26, 3-{[6-Methoxy-7-(2-methoxy-ethoxy)-2-oxo-1,2-dihydro-quinoline-3-carbonyl]-amino}-4-methyl-benzoic acid methyl ester] | 5.14 | 6.42 | – | –
9 | COCCOc1cc2[nH]c(=O)c(C(=O)Nc3cc(-c4nnn[nH]4)ccc3C)cc2cc1OC [Example 27, 6-Methoxy-7-(2-methoxy-ethoxy)-2-oxo-1,2-dihydro-quinoline-3-carboxylic acid [2-methyl-5-(1H-tetrazol-5-yl)-phenyl]-amide] | – | 6.59 | – | 41
10 | COCCOc1cc2cc(C(=O)Nc3cc(-c4nnn[nH]4)ccc3C)c(=O)[nH]c2cc1OCCOC [Example 28, 6,7-Bis-(2-methoxy-ethoxy)-2-oxo-1,2-dihydro-quinoline-3-carboxylic acid [2-methyl-5-(1H-tetrazol-5-yl)-phenyl]-amide] | – | 5.05 | – | 49
11 | COc1cc2cc(C(=O)Nc3cc(C(=O)NCCCN4CCOCC4)ccc3C)c(=O)[nH]c2cc1OC [Example 32, 6,7-Dimethoxy-2-oxo-1,2-dihydro-quinoline-3-carboxylic acid [2-methyl-5-(3-morpholin-4-yl-propylcarbamoyl)-phenyl]-amide] | 3.62 | > 10 | – | –
12 | COc1cc2cc(C(=O)Nc3cc(C(=O)NC(CO)C(C)C)ccc3C)c(=O)[nH]c2cc1OC (centres unmarked) [Example 33, 6,7-Dimethoxy-2-oxo-1,2-dihydro-quinoline-3-carboxylic acid [5-(1-hydroxymethyl-2-methyl-propylcarbamoyl)-2-methyl-phenyl]-amide] | – | – | 36 | 36
13 | COc1cc2cc(C(=O)Nc3ccncc3Cl)c(=O)[nH]c2cc1OC [Example 36, 6,7-Dimethoxy-2-oxo-1,2-dihydro-quinoline-3-carboxylic acid (3-chloro-pyridin-4-yl)-amide] | 0.239 | – | 28 | –
14 | COc1cc2cc(C(=O)Nc3cc(C(=O)NCc4cccc(Cl)c4)ccc3C)c(=O)[nH]c2cc1OC [Example 40, 6,7-Dimethoxy-2-oxo-1,2-dihydro-quinoline-3-carboxylic acid [5-(3-chloro-benzylcarbamoyl)-2-methyl-phenyl]-amide] | 0.182 | – | 34 | –
15 | COc1cc2cc(C(=O)Nc3cc(C(=O)NCC4CCCCC4)ccc3C)c(=O)[nH]c2cc1OC [Example 41, 6,7-Dimethoxy-2-oxo-1,2-dihydro-quinoline-3-carboxylic acid [5-(cyclohexylmethyl-carbamoyl)-2-methyl-phenyl]-amide] | 4.59 | 2.59 | – | –
16 | COc1cc2cc(C(=O)Nc3cc(-c4ncco4)ccc3C)c(=O)[nH]c2cc1OC [Example 51, 6,7-Dimethoxy-2-oxo-1,2-dihydro-quinoline-3-carboxylic acid (2-methyl-5-oxazol-2-yl-phenyl)-amide] | 0.592 | – | 42 | –
17 | COc1cc2cc(C(=O)Nc3cc(C(=O)N[C@@H](CO)c4ccccc4)ccc3C)c(=O)[nH]c2cc1OC [Example 56, (R)-N-(5-(2-Hydroxy-1-phenylethylcarbamoyl)-2-methylphenyl)-6,7-dimethoxy-2-oxo-1,2-dihydroquinoline-3-carboxamide] | – | > 10 | – | 31
18 | COc1cc2cc(C(=O)Nc3cc(C(=O)N[C@H](CO)CC(C)C)ccc3C)c(=O)[nH]c2cc1OC [Example 65, (S)-N-(5-(1-Hydroxy-4-methylpentan-2-ylcarbamoyl)-2-methylphenyl)-6,7-dimethoxy-2-oxo-1,2-dihydroquinoline-3-carboxamide] | 4.31 | – | 26 | –
19 | COc1cc2cc(C(=O)Nc3cc(C(=O)N[C@@H](CO)CC(C)C)ccc3C)c(=O)[nH]c2cc1OC [Example 66, (R)-N-(5-(1-Hydroxy-4-methylpentan-2-ylcarbamoyl)-2-methylphenyl)-6,7-dimethoxy-2-oxo-1,2-dihydroquinoline-3-carboxamide] | > 10 | – | 13 | –
